Laboratory results from ChEMBL document CHEMBL1201862, “PubChem BioAssay data set” (2004).
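Briefly, cells in 96-well plates were exposed to five compound concentrations for 48 h, and endpoints were estimated by linear interpolation. Here, GI50 denotes the concentration required for 50% inhibition of growth.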 The source made the active and inactive calls. No stated cut-off is given here; in the data, active = GI50 up to about 1.1 µM and inactive = higher.

Columns and labels:
Assay in all cases: inhibition of tumour cell growth, NCI panel, 48 h
[1] = tested on: LOX IMVI
[2] = tested on: HL-60
[3] = tested on: LXFL 529
[4] = tested on: KM-20L2
[5] = tested on: Malme-3M
[6] = tested on: DLD-1
[7] = tested on: IGROV-1
[8] = tested on: UO-31
[9] = tested on: K562
[10] = tested on: HOP-92
[11] = tested on: UACC-257
[12] = tested on: HOP-18
[13] = tested on: SNB-78
[14] = tested on: NCI-H23
[15] = tested on: DMS-273
[16] = tested on: OVCAR-3
[17] = tested on: HT-29
[18] = tested on: M14
[19] = tested on: A498
[20] = tested on: NCI-H226
[21] = tested on: OVCAR-5
[22] = tested on: HCT-15
[23] = tested on: HCC 2998
[24] = tested on: XF498
[25] = tested on: SF-539
[26] = tested on: RXF 631
[27] = tested on: M19-MEL
[28] = tested on: KM12
[29] = tested on: SK-MEL-2
[30] = tested on: SW-620
[31] = tested on: NCI-H460
[32] = tested on: SNB-75
[33] = tested on: TK-10
[34] = tested on: RXF 393
[35] = tested on: NCI-H522
[36] = tested on: 786-0
[37] = tested on: A549
[38] = tested on: HCT-116
[39] = tested on: U-251
[40] = tested on: SF-268
[41] = tested on: SK-MEL-5
[42] = tested on: SN12C
[43] = tested on: SNB-19
[44] = tested on: EKVX
[45] = tested on: OVCAR-8
[46] = tested on: MOLT-4
[47] = tested on: DMS-114
[48] = tested on: CAKI-1
[49] = tested on: SF-295
[50] = tested on: HOP-62
[51] = tested on: RPMI-8226
[52] = tested on: SK-MEL-28
[53] = tested on: UACC-62
[54] = tested on: ACHN

CCCc1nc(NC#N)nc(C(=O)Nc2ccccc2)c1CC
GI50 [1]: > 100 µM (inactive)
GI50 [2]: > 100 µM (inactive)
GI50 [3]: > 100 µM (inactive)
GI50 [4]: > 100 µM (inactive)
GI50 [5]: > 100 µM (inactive)
GI50 [6]: > 100 µM (inactive)
GI50 [7]: > 100 µM (inactive)
GI50 [8]: > 100 µM (inactive)
GI50 [9]: > 100 µM (inactive)
GI50 [10]: > 100 µM (inactive)
GI50 [11]: > 100 µM (inactive)
GI50 [12]: > 100 µM (inactive)
GI50 [13]: > 100 µM (inactive)
GI50 [14]: > 100 µM (inactive)
GI50 [15]: > 100 µM (inactive)
GI50 [16]: > 100 µM (inactive)
GI50 [17]: > 100 µM (inactive)
GI50 [18]: > 100 µM (inactive)
GI50 [19]: > 100 µM (inactive)
GI50 [20]: > 100 µM (inactive)
GI50 [21]: > 100 µM (inactive)
GI50 [22]: > 100 µM
GI50 [23]: > 100 µM (inactive)
GI50 [24]: > 100 µM (inactive)
GI50 [25]: > 100 µM (inactive)
GI50 [26]: > 100 µM (inactive)
GI50 [27]: > 100 µM (inactive)
GI50 [28]: > 100 µM (inactive)
GI50 [29]: > 100 µM (inactive)
GI50 [30]: > 100 µM (inactive)
GI50 [31]: > 100 µM (inactive)
GI50 [32]: > 100 µM (inactive)
GI50 [33]: > 100 µM (inactive)
GI50 [34]: > 100 µM (inactive)
GI50 [35]: > 100 µM (inactive)
GI50 [36]: > 100 µM (inactive)
GI50 [37]: > 100 µM (inactive)
GI50 [38]: > 100 µM (inactive)
GI50 [39]: > 100 µM (inactive)
GI50 [40]: > 100 µM (inactive)
GI50 [41]: > 100 µM (inactive)
GI50 [42]: > 100 µM (inactive)
GI50 [43]: > 100 µM (inactive)
GI50 [44]: > 100 µM (inactive)
GI50 [45]: > 100 µM (inactive)
GI50 [46]: > 100 µM (inactive)
GI50 [47]: > 100 µM (inactive)
GI50 [48]: > 100 µM (inactive)
GI50 [49]: > 100 µM (inactive)
GI50 [50]: > 100 µM (inactive)
GI50 [51]: > 100 µM (inactive)
GI50 [52]: > 100 µM (inactive)
GI50 [53]: > 100 µM (inactive)
GI50 [54]: > 100 µM (inactive)
